Results taken from patent US20250034182A1, “PHOSPHOLIPID COMPOUNDS AND METHODS OF MAKING AND USING THE SAME” (priority 2021, published 2025).

How the values were obtained:
Assay type in all cases: cell-based
[1] = test system: Respiratory syncytial virus recombinant with luciferase (RSV-Luc5) in NHBE cells; assay: NHBE RSV-Luc5 384-well assay (EC50 RSVFLUC NHBE-384, Example U); conditions: human respiratory syncytial virus, 72 h, read-out: RSV FLuc NHBE 384 EC50 (v2) (nM) (per Ex. U)
How it was run: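 Passage-2 NHBE cells (5,000/well) on pre-spotted compounds, 10-point 1:3 series, infected with RSV-Luc5 at MOI 1 and incubated 3 days at 37° C. Replication read by One-Glo luminescence, normalized to remdesivir (0%) and DMSO (100%); EC50 = concentration reducing replication by 50%, by non-linear regression.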

[2] = test system: Human Rhinovirus 16 (HRV16) in H1-HeLa cells; assay: H1-HeLa HRV-CTG EC50, HRV16 (Example Z); conditions: Rhinovirus A, HRV16, 96 h, MOI 0.25, 4 days, Celltiter-Glo, read-out: HRV 16 HELA EC50 (nM) (per Ex. Z)
How it was run: (§1)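 H1-HeLa cells (5,000/well) in DMEM with 2% FBS were infected with HRV1B, HRV14 or HRV16 at MOI 0.5, 1.0 and 0.25, respectively, with 10-point 1:3 compound dilutions. After 4 days at 37 °C, viability was read by CellTiter-Glo luminescence. EC50 was the concentration reducing viral replication by 50%, normalized to rupintrivir and DMSO controls.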

[3] = test system: Human Rhinovirus 14 (HRV14) in H1-HeLa cells; assay: H1-HeLa HRV-CTG EC50, HRV14 (Example Z); conditions: Rhinovirus B, HRV14, 96 h, MOI 1.0, 4 days, Celltiter-Glo, read-out: HRV14 HELA EC50 (nM) (per Ex. Z)
How it was run: as §1

| Compound | EC50 [1] [nM] | EC50 [2] [nM] | EC50 [3] [nM] |
| --- | --- | --- | --- |
| CCCCCCCCCCCCCCCCCCC[C@H](COP(=O)(O)OC[C@@]1(C#N)O[C@@H](c2ccc3c(N)ncnn23)[C@H](O)[C@@H]1O)OCc1cc(F)cc(C#N)c1 [Compound 25, ((2R,3S,4R,5S)-5-(4-aminopyrrolo[2,1-f][1,2,4]triazin-7-yl)-2-cyano-3,4-dihydroxytetrahydrofuran-2-yl)methyl ((R)-2-((3-cyano-5-fluorobenzyl)oxy)henicosyl) hydrogen phosphate] | 169 | 99 | 103 |
| CCCCCCCCCCCCCCOC[C@H](COP(=O)(O)OC[C@@]1(C#N)O[C@@H](c2ccc3c(N)ncnn23)[C@H](O)[C@@H]1O)OCc1ccc(C#N)cc1F [Compound 75, ((2R,3S,4R,5S)-5-(4-aminopyrrolo[2,1-f][1,2,4]triazin-7-yl)-2-cyano-3,4-dihydroxytetrahydrofuran-2-yl)methyl ((R)-2-((4-cyano-2-fluorobenzyl)oxy)-3-(tetradecyloxy)propyl) hydrogen phosphate] | 12 | 37 | 37 |
| CCCCCCCCCCCCCCCCCCOCC(COc1cc(F)cc(C#N)c1)COP(=O)(O)OC[C@@]1(C#N)O[C@@H](c2ccc3c(N)ncnn23)[C@H](O)[C@@H]1O (stereo partly drawn) [Compound 43, ((2R,3S,4R,5S)-5-(4-aminopyrrolo[2,1-f][1,2,4]triazin-7-yl)-2-cyano-3,4-dihydroxytetrahydrofuran-2-yl)methyl (3-(3-cyano-5-fluorophenoxy)-2-((octadecyloxy)methyl)propyl) hydrogen phosphate] | 98 | 53 | 75 |
| CCCCCCCCCCCCCCCCCCOC[C@H](COP(=O)(O)OC[C@@]1(C#N)O[C@@H](c2ccc3c(N)ncnn23)[C@H](O)[C@@H]1O)Oc1ccc(C#N)c(OC(C)C)c1 [Compound 23, ((2R,3S,4R,5S)-5-(4-aminopyrrolo[2,1-f][1,2,4]triazin-7-yl)-2-cyano-3,4-dihydroxytetrahydrofuran-2-yl)methyl ((R)-2-(4-cyano-3-isopropoxyphenoxy)-3-(octadecyloxy)propyl) hydrogen phosphate] | 4 | 7 | 9 |
| CCCCCCCCCCCCCCCCCOC[C@H](COP(=O)(O)OC[C@@]1(C#N)O[C@@H](c2ccc3c(N)ncnn23)[C@H](O)[C@@H]1O)OCc1cc(F)cc(C#N)c1 [Compound 53, ((2R,3S,4R,5S)-5-(4-aminopyrrolo[2,1-f][1,2,4]triazin-7-yl)-2-cyano-3,4-dihydroxytetrahydrofuran-2-yl)methyl ((R)-2-((3-cyano-5-fluorobenzyl)oxy)-3-(heptadecyloxy)propyl) hydrogen phosphate] | 22 | 35 | 35 |
